Tests used:
[1] = target: T1, human neutrophil elastase (Homo sapiens, UniProt P08246); test: SDS PAGE of recombinant human neutrophil elastase treated with cysteamine and derivatives; conditions: FIG. 3; 2.5 μg NE with 2.5 or 5 μg compound, 1 h at 37° C., 8-16% Tris-Glycine SDS gel
T1 sequence (P08246 30-267): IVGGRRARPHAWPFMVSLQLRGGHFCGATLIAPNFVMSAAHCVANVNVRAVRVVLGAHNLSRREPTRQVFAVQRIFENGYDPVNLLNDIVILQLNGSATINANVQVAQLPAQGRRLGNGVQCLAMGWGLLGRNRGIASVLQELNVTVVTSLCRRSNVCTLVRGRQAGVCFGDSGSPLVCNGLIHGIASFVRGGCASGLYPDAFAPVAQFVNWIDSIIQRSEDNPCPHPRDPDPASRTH
Method: FIG. 3: The banding pattern and relative staining intensity of recombinant human neutrophil elastase is altered by the addition of cysteamine bitartrate and cysteamine free base. […] This 8-16% gradient Tri-Glycine SDS gel is loaded with a molecular weight marker and: 1. Recombinant human neutrophil elastase [2.5 μg total]; 2. Recombinant human neutrophil elastase [2.5 μg total] and cysteamine bitartrate [2.5 μg total]; 3. Recombinant human neutrophil elastase [2.5 μg total] and cysteamine bitartrate [5 μg total]; 4. Recombinant human neutrophil elastase [2.5 μg total] and cysteamine free base [2.5 μg total]; 5. Recombinant human neutrophil elastase [2.5 μg total] and cysteamine free base [5 μg total]; 6. Recombinant human neutrophil elastase [2.5 μg total] and cystamine dihydrochloride [2.5 μg total]; 7. Recombinant human neutrophil elastase [2.5 μg total] and cystamine dihydrochloride [5 μg total].
Recombinant proteins were treated with or without cysteamine and its derivatives at the concentrations stated in the figures below for 1 h at 37° C. prior to addition of 2× sample buffer and electrophoretic separation on pre-cast 8-16% tris-glycine SDS polyacrylamide gradient gel (Life Technologies) under a constant voltage of 120V in tris-glycine running buffer until the dye front reached the end of the gel. Samples were not heated prior to loading to minimize denaturation of disulphide bonds on the denaturing gel. Precision Plus (Bio-Rad) prestained protein standards were used alongside samples. After electrophoresis gels were carefully removed from the plastic cassettes and washed in sterile distilled water to remove SDS 3× for 5 min. Protein bands were visualized using coomassie-based Simply Blue™ Safe Stain (Life Technologies) staining for 1 h at room temperature. The gel was washed overnight in sterile distilled water, and for a further hour in fresh water prior to photographing.

[2] = target: T1, human neutrophil elastase; test: Neutrophil Elastase Inhibitor Screening Kit (Sigma MAK213), fluorometric; type: biochemical; set-up: purchased Sigma-Aldrich MAK213; conditions: for effect on human neutrophil elastase activity measured fluorometrically: FIG. 2, result in words; for Relative inhibition of NE activity (%): 30 min, 37° C.
Method: Neutrophil Elastase Inhibitor Screening Kit is available from Sigma-Aldrich, catalogue number MAK213. This kit measures neutrophil elastase activity by detecting the hydrolysis and release of a fluorescent product. It allows for the screening of unknown substances for inhibitory activity and compares with a positive inhibitor control. Cysteamine free base, cysteamine bitartrate, and cystamine dihydrochloride were prepared in the assay buffer provided at four times the final testing concentration and combined with enzyme and substrate as appropriate and as defined in the full protocol. Samples were prepared in 96 well microtiter plates with black well walls. Background fluorescence can be determined by omitting the neutrophil elastase from a sample blank control. Fluorescence was measured at 400ex/505em nm on a Biotek Synergy plate reader over 30 min at an incubation temperature of 37° C. Relative inhibition is determined by the following equations: Slope=(Fluorescence 2−Fluorescence 1)/(Time 2−Time 1)=delta fluorescence/minute % Relative Inhibition=((SlopeEC−SlopeSM)/SlopeEC))×100 Where: SlopeSM=the slope of the sample inhibitor (cysteamine and derivatives) & SlopeEC=the slope of the Enzyme control.

Row | Structure (SMILES) | banding pattern and relative staining intensity of recombinant human neutrophil elastase [1] | effect on human neutrophil elastase activity measured fluorometrically [2] | Relative inhibition of NE activity (%) ([2]; Cysteamine bitartrate concentration 20 μg/ml) | Relative inhibition of NE activity (%) ([2]; Cysteamine bitartrate concentration 200 μg/ml) | Relative inhibition of NE activity (%) ([2]; Cysteamine bitartrate concentration 2000 μg/ml)
1 | Cl.Cl.NCCSSCCN [Cystamine dihydrochloride, cystamine dihydrochloride] | less of an effect | minimal effect | – | – | –
2 | NCCS.O=C(O)C(O)C(O)C(=O)O (stereo not drawn) [Cysteamine bitartrate, cysteamine bitartrate] | altered | effected human neutrophil elastase activity | 12.526 | 30.689 | 86.639
3 | NCCS [cysteamine free base, NH2—CH2—CH2—SH] | altered | effected human neutrophil elastase activity | – | – | –
